± gives the expanded uncertainty stated by the source.
Experiment: mn = molality of the nth substance listed, in mol/kg
Settings: 99.6 kPa, Liquid; for viscosity: Capillary tube (Ostwald / Ubbelohde) method; for mass density: Vibrating tube method

CNC(C)=O [N-methylacetamide] + [Cl-].[Cl-].[Zn+2]
Settings | mass density, 308.15 K [kg/m3] | mass density, 313.15 K [kg/m3] | mass density, 318.15 K [kg/m3] | mass density, 323.15 K [kg/m3] | mass density, 328.15 K [kg/m3] | viscosity, 308.15 K [mPa·s] | viscosity, 313.15 K [mPa·s] | viscosity, 318.15 K [mPa·s] | viscosity, 323.15 K [mPa·s] | viscosity, 328.15 K [mPa·s]
m2 = 0 | 946.01 ± 1.9 | 941.81 ± 1.9 | 937.59 ± 1.9 | 933.36 ± 1.9 | 929.17 ± 1.9 | 3.57 ± 0.044 | 3.152 ± 0.039 | 2.8 ± 0.035 | 2.496 ± 0.031 | 2.245 ± 0.028
m2 = 0.01212 | 947.01 ± 1.9 | 942.99 ± 1.9 | 938.78 ± 1.9 | 934.4 ± 1.9 | 930.23 ± 1.9 | 3.595 ± 0.044 | 3.169 ± 0.039 | 2.819 ± 0.035 | 2.512 ± 0.031 | 2.26 ± 0.028
m2 = 0.02085 | 948.03 ± 1.9 | 943.83 ± 1.9 | 939.63 ± 1.9 | 935.24 ± 1.9 | 931.05 ± 1.9 | 3.615 ± 0.044 | 3.186 ± 0.039 | 2.834 ± 0.035 | 2.528 ± 0.031 | 2.271 ± 0.028
m2 = 0.04092 | 949.55 ± 1.9 | 945.27 ± 1.9 | 941.06 ± 1.9 | 936.82 ± 1.9 | 932.75 ± 1.9 | 3.653 ± 0.045 | 3.223 ± 0.04 | 2.868 ± 0.035 | 2.558 ± 0.032 | 2.296 ± 0.028
m2 = 0.04735 | 950.23 ± 1.9 | 946.04 ± 1.9 | 941.77 ± 1.9 | 937.56 ± 1.9 | 933.2 ± 1.9 | 3.669 ± 0.045 | 3.232 ± 0.04 | 2.876 ± 0.035 | 2.566 ± 0.032 | 2.304 ± 0.028
m2 = 0.05898 | 951.13 ± 1.9 | 946.91 ± 1.9 | 942.72 ± 1.9 | 938.63 ± 1.9 | 934.26 ± 1.9 | 3.698 ± 0.045 | 3.255 ± 0.04 | 2.895 ± 0.036 | 2.584 ± 0.032 | 2.319 ± 0.029
m2 = 0.06108 | 951.43 ± 1.9 | 947.18 ± 1.9 | 942.96 ± 1.9 | 938.78 ± 1.9 | 934.52 ± 1.9 | 3.703 ± 0.045 | 3.262 ± 0.04 | 2.9 ± 0.036 | 2.586 ± 0.032 | 2.322 ± 0.029
m2 = 0.07786 | 952.85 ± 1.9 | 948.65 ± 1.9 | 944.45 ± 1.9 | 940.25 ± 1.9 | 935.97 ± 1.9 | 3.743 ± 0.046 | 3.293 ± 0.04 | 2.928 ± 0.036 | 2.612 ± 0.032 | 2.344 ± 0.029
m2 = 0.09351 | 954.27 ± 1.9 | 949.99 ± 1.9 | 945.73 ± 1.9 | 941.52 ± 1.9 | 937.33 ± 1.9 | 3.778 ± 0.046 | 3.324 ± 0.041 | 2.955 ± 0.036 | 2.635 ± 0.032 | 2.364 ± 0.029
m2 = 0.1025 | 955.14 ± 1.9 | 950.92 ± 1.9 | 946.63 ± 1.9 | 942.41 ± 1.9 | 938.12 ± 1.9 | 3.797 ± 0.047 | 3.347 ± 0.041 | 2.972 ± 0.037 | 2.652 ± 0.033 | 2.378 ± 0.029
m2 = 0.1083 | 955.59 ± 1.9 | 951.41 ± 1.9 | 947.14 ± 1.9 | 942.93 ± 1.9 | 938.6 ± 1.9 | 3.81 ± 0.047 | 3.354 ± 0.041 | 2.982 ± 0.037 | 2.659 ± 0.033 | 2.384 ± 0.029
m2 = 0.1702 | 961.31 ± 1.9 | 957.1 ± 1.9 | 952.84 ± 1.9 | 948.64 ± 1.9 | 944.4 ± 1.9 | 3.964 ± 0.049 | 3.495 ± 0.043 | 3.099 ± 0.038 | 2.765 ± 0.034 | 2.475 ± 0.03
m2 = 0.2236 | 966.13 ± 1.9 | 961.88 ± 1.9 | 957.61 ± 1.9 | 953.37 ± 1.9 | 949.14 ± 1.9 | 4.112 ± 0.05 | 3.611 ± 0.044 | 3.202 ± 0.039 | 2.854 ± 0.035 | 2.553 ± 0.031
m2 = 0.372 | 979.32 ± 2 | 975.11 ± 2 | 970.87 ± 1.9 | 966.57 ± 1.9 | 962.36 ± 1.9 | 4.544 ± 0.055 | 3.97 ± 0.048 | 3.516 ± 0.043 | 3.132 ± 0.038 | 2.795 ± 0.034
m2 = 0.6919 | 1007.77 ± 2 | 1003.5 ± 2 | 999.23 ± 2 | 994.92 ± 2 | 990.69 ± 2 | 5.686 ± 0.069 | 4.929 ± 0.06 | 4.32 ± 0.052 | 3.82 ± 0.046 | 3.381 ± 0.041
m2 = 1.299 | 1060.68 ± 2.1 | 1056.36 ± 2.1 | 1052 ± 2.1 | 1047.7 ± 2.1 | 1043.43 ± 2.1 | 8.811 ± 0.1 | 7.487 ± 0.089 | 6.416 ± 0.076 | 5.603 ± 0.067 | 4.9 ± 0.059
